Test in all cases: TGFα-shedding assay-based GPCR screening with chimeric Gα subunit proteins
What all share (format): cell-based

Assay [1] addresses T1, 348 GPCRs (Homo sapiens, UniProt P46094).
T1 construct: expressed in transfected cells; host or cells: HEK293A
T1 sequence (P46094 1-333): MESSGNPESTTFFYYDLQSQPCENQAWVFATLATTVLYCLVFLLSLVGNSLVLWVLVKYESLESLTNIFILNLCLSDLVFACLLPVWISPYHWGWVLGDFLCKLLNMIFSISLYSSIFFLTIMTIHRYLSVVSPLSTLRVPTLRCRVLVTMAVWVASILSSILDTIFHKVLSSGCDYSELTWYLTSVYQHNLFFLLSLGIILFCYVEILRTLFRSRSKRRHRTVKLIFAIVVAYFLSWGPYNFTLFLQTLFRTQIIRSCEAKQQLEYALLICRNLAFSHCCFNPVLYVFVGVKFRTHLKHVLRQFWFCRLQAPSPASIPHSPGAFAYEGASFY

The target in assay [2] is T2, 348 GPCRs (Homo sapiens, UniProt P48544).
T2 construct: expressed in transfected cells; host or cells: HEK293A
T2 sequence (P48544 1-419): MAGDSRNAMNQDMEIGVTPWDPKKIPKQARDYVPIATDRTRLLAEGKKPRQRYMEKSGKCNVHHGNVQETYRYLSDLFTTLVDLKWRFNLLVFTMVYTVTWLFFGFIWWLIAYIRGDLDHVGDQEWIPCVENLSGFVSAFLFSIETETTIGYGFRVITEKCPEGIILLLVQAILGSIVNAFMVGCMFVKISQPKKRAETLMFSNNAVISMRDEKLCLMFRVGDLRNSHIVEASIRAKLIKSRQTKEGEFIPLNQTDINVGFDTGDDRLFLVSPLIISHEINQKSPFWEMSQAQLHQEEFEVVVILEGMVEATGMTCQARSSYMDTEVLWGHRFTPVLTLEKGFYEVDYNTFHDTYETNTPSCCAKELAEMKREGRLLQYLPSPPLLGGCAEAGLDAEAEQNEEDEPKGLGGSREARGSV
To be noted: 10µM, Favipiravir 100μM.

Assay [3] addresses T3, 348 GPCRs (Homo sapiens, UniProt Q86SQ4).
T3 construct: expressed in transfected cells; host or cells: HEK293A
T3 sequence (Q86SQ4 38-1221): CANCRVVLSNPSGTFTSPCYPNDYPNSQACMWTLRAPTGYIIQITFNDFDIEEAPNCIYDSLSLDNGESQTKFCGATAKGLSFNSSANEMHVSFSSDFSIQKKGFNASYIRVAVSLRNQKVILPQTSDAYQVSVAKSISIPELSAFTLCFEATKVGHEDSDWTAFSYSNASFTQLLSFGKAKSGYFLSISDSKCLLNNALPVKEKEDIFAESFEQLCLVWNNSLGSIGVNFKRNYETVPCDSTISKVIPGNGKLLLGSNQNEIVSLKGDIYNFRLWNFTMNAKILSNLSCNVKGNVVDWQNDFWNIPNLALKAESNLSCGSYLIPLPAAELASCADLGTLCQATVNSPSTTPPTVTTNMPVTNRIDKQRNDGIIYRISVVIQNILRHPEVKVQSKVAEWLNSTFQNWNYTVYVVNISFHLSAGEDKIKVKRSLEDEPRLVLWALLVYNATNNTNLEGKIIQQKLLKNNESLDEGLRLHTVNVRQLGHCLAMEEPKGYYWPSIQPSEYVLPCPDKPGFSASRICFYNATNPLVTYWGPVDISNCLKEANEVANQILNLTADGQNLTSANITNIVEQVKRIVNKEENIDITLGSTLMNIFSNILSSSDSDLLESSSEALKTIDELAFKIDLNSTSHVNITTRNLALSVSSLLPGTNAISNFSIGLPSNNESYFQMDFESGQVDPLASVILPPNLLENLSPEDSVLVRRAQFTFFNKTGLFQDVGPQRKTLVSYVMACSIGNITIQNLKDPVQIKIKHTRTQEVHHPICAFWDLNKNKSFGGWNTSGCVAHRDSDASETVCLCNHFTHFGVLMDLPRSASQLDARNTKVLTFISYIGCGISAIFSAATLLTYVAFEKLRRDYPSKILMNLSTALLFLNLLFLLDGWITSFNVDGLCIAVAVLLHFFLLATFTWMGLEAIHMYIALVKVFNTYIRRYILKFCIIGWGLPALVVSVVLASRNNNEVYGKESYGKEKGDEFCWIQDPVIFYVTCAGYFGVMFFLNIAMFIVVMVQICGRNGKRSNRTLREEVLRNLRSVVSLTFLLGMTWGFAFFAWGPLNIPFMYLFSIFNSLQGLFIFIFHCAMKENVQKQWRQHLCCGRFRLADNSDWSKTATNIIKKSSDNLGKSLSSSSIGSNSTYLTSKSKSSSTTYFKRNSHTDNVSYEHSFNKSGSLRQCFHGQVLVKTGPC
The conditions noted are these: 10µM, Favipiravir 100μM.

Assay [4] deals with T4, 348 GPCRs (Homo sapiens, UniProt Q96LB1).
T4 construct: expressed in transfected cells; host or cells: HEK293A
T4 sequence (Q96LB1 1-330): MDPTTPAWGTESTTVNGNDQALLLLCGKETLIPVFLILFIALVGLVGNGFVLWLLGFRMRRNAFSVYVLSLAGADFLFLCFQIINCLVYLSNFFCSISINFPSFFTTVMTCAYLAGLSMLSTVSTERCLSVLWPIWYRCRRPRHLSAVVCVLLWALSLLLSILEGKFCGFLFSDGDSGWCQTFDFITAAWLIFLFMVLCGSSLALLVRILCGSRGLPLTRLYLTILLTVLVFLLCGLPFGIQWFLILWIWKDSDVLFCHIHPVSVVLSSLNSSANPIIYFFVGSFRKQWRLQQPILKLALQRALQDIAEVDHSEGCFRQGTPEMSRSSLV
To be noted: 10µM, Favipiravir 100μM.

The mark [5] stands for this setting: GPCR XCR1 (chemokine (C motif) receptor 1/GPR5), read-out: % GPCR activation compared to TPA.
Where [6] appears, read: KCNJ5 (potassium inwardly rectifying channel, subfamily J, member 5), read-out: % GPCR activation compared to TPA.
[7] abbreviates: GPR126 (Adhesion G Protein-Coupled Receptor G6 (ADGRG6)), read-out: % GPCR activation compared to TPA.
[8] abbreviates: MRGPRX2 (MAS-related GPR, member X2), read-out: % GPCR activation compared to TPA.
Where [9] appears, read: read-out: % GPCR activation compared to TPA, GPCR XCR1 (chemokine (C motif) receptor 1/GPR5).
The mark [10] stands for this setting: read-out: % GPCR activation compared to TPA, KCNJ5 (potassium inwardly rectifying channel, subfamily J, member 5).
The mark [11] stands for this setting: read-out: % GPCR activation compared to TPA, GPR126 (Adhesion G Protein-Coupled Receptor G6 (ADGRG6)).
Where [12] appears, read: read-out: % GPCR activation compared to TPA, MRGPRX2 (MAS-related GPR, member X2).

Like-named read-outs stand apart in the source and are kept apart here.

Consider 5 molecules from paper PMC10175918 (Communications Biology, 2023).

For `CC(C)C(=O)OC[C@H]1O[C@@H](n2ccc(NO)nc2=O)[C@H](O)[C@@H]1O` [molnupiravir], the activation at 10 µM on 348 GPCRs [1] (setting [5]) is -0.399%. Besides, the activation at 100 µM at 348 GPCRs [2] (setting [6]) is -0.841%; on 348 GPCRs [3] (setting [7]) it was -3.31%; on 348 GPCRs [4] (setting [8]), -3.06%.
`CC(C)OC(=O)[C@H](C)N[P@](=O)(OC[C@H]1O[C@@H](n2ccc(=O)[nH]c2=O)[C@](C)(F)[C@@H]1O)Oc1ccccc1` [sofosbuvir]: the activation at 10 µM on 348 GPCRs [1] (setting [9]) is -0.208%. In addition, the activation at 100 µM is -2.66% on 348 GPCRs [2] (setting [10]), -2.49% on 348 GPCRs [3] (setting [11]) and 0.383% at 348 GPCRs [4] (setting [12]).
For the molecule `N#C[C@@]1(c2ccc3c(N)ncnn23)O[C@H](CO)[C@@H](O)[C@H]1O` [GS441524], the activation at 10 µM on 348 GPCRs [1] (setting [5]) was -1.92%. The values for the activation at 100 µM at 348 GPCRs [2] (setting [6]), on 348 GPCRs [3] (setting [7]) and on 348 GPCRs [4] (setting [8]) were 1.89%, -3.47% and -2.44%, respectively.
Turning to `NC(=O)c1nc(F)cnc1O` [favipiravir, 6-fluoro-3-hydroxy-2-pyrazinecarboxamide], the activation at 100 µM at 348 GPCRs [1] (GPCR XCR1 (chemokine (C motif) receptor 1/GPR5), 100μM, read-out: % GPCR activation compared to TPA) was 0.846%; on 348 GPCRs [2] (setting [6]), -1.78%; at 348 GPCRs [3] (setting [7]) it was -2.03%; on 348 GPCRs [4] (setting [8]), -2.37%.
As for `CCC(CC)COC(=O)[C@H](C)N[P@](=O)(OC[C@H]1O[C@@](C#N)(c2ccc3c(N)ncnn23)[C@H](O)[C@@H]1O)Oc1ccccc1` [remdesivir], the activation at 10 µM on 348 GPCRs [1] (setting [9]) amounted to 0.628%. In addition, the activation at 100 µM at 348 GPCRs [2] (setting [10]) was 1.55%; at 348 GPCRs [3] (setting [11]), -0.536%; at 348 GPCRs [4] (setting [12]), 0.19%.
